Laboratory results taken from article PMC1779548, “Antihuman Immunodeficiency Virus Type 1 (HIV-1) Activity of Rare Earth Metal Complexes of 4-Hydroxycoumarins in Cell Culture” (Bioinorganic Chemistry and Applications, 2006).

Tests used:
in vitro = assay type: cell-based; conditions: MT-2 cells, neutral red uptake, 72 h
Text: (§1) The following cell lines were used: H9/HTLV III B—chronically infected with HIV-1LAI cells, kindly provided by Professor R. Gallo, and MT-2 uninfected human lymphoblastoid cells, HTLV-I transformed. The cells were maintained in RPMI 1640 plus 10% FCS.
(§2) The following parameters were studied: cytotoxic concentration 50—CC50 (concentration […] death of 50% of MT-2 cells), maximal nontoxic concentration—MNC (the highest concentration causing no cytotoxicity), and inhibitory concentration 50–IC50 (concentration inhibiting by 50% the viral replication). CC50 and MNC were detected by neutral red uptake assay. IC50 was studied on MT-2 cells by microtiter infection assay using neutral red uptake. Briefly, the experimental procedure under conditions of acute infection was performed in 96-well microplates in the following sequence:
(§3) • 100 μL MT-2 cells (4–5 × 10 ^4 cells); • 50 μL HIV-1 (undiluted or in the appropriate dilution to obtain multiplicity of infection ≥ 1); contact (2 hours at 37°C/5% CO2); when CC50 and MNC were detected, growth medium instead of virus has been added; • 50 μL sample of substance tested starting from 4× MNC (because this volume is 1/4 of the whole volume in the well) and 2- or 10-fold dilutions in growth medium.
(§4) The cells were incubated for 72 hours and then 100 μL of them were removed to another 96-well plate previously treated for an hour with 50 μg/mL poly-L-lysine (PLL) in volume 100 μL. A solution of 100 μL per well of neutral red in growth medium (0.016%) was added and the cells were incubated for 2 hours at 37°C/5% CO2. Neutral red dye was extracted by acidified alcohol (50% ethanol in 1% acetic acid) and measured colorimetrically at 540 nm. Each plate contained 8 cell control wells (no virus, no substance) for all kinds of experiments. When IC50 was detected, a row of 8 viral controls (plus virus, no substance) and rows of 8 experimental wells (plus virus, different dilutions of the substance) were performed. The values of optical density at 540 nm (OD540) were averaged for each row and the mean values of experimental and control rows were compared. As far as the ligands and their complexes were DMSO soluble, the appropriate controls of DMSO and DMSO + HIV-1 in growth medium were always considered.

MT-2 cells = assay: in vitro; assay type: cell-based; conditions: for MNC (maximal nontoxic concentration) / CC50 / MNC higher compared to La(1) and the ligand (1): MT-2 cells; for MNC (maximal nontoxic concentration) / CC50: neutral red uptake, 72 h; for MNC higher compared to La(1) and the ligand (1): ratio of MNC
Text: as §1, §2, §3, §4

HIV-1 = conditions: at MNC, 72 h incubation, supernatants of HIV-1 infected MT-2 cells, averaged after at least 3 experiments
Protocol: Endogenous RT activity of supernatants of HIV-1 infected MT-2 cells treated/untreated with complexes and ligands was tested by HS-Lenti Kit-RT assay (Cavidi, Sweden). The kit contained recombinant RT (rRT) as a standard which made possible quantitation of the RT in the sample. The method is nonradioactive and colorimetrically detects RT activity product (DNA) at 405 nm (OD405) [3].

HIV-1LAI = assay: Microtiter infection assay (neutral red uptake), acute infection of MT-2 cells; assay type: cell-based; conditions: for Inhibition (%): 2.5 μM, HIV-1LAI infected MT-2 cells; for anti-HIV potency (in words): MT-2/HIV-1, at or under MNC
Protocol: As a source of HIV-1, the supernatant of H9/HTLV III B cell line was used. The supernatants were collected and centrifuged to remove the cells, and virus stocks were prepared with known p24 antigen content, RT activity and infectivity. MT-2 cells were infected with HIV-1 (multiplicity of infection ≥ 1) in suspension (37°C/5% CO2) and then grown parallely with uninfected ones for 72 hours.
CC50 and MNC were detected by neutral red uptake assay. IC50 was studied on MT-2 cells by microtiter infection assay using neutral red uptake. Briefly, the experimental procedure under conditions of acute infection was performed in 96-well microplates in the following sequence:
as §3, §4

[1] = tested on: H9/HTLV III B cells chronically producing HIV-1LAI; assay: Chronic infection: RT activity in supernatants of treated H9/HTLV III B cells; assay type: cell-based
Protocol: (§5) The effect of the compounds was also studied under conditions of chronic infection using productively HIV-infected cells (H9/HTLV III B). The production of infectious virions was measured again using the cytopathic effect of supernatants on MT-2 cells as described above.
(§6) To address further the target of HIV inhibition especially by La(W), a study of this complex for effect on late stages of HIV-1 life cycle (protease, budding, assembly) was carried out. To do this, we treated H9/HTLV III B cells—chronically producing HIV-1—with La(W) at 3 concentrations, starting from MNC. Also, 10× dilution of Indinavir was used as a reference for antiprotease effect. Table 7 represents the results for the effect of La(W) in 3 concentrations on late stages of HIV replication.

[2] = tested on: H9/HTLV III B cells chronically producing HIV-1LAI; assay: Chronic infection: microtiter infection assay on MT-2 cells with supernatants of treated H9/HTLV III B cells; assay type: cell-based; conditions: undiluted supernatant on MT-2 cells
Protocol: as §5, §6

SMILES | CC50 at 72 h (in vitro) [µM] | MNC (maximal nontoxic concentration) (MT-2 cells) | HIV inhibition (%) Endogenous RT activity (HIV-1) | CC50 (MT-2 cells) [µM] | MNC higher compared to La(1) and the ligand (1) (MT-2 cells) | Inhibition (%) (HIV-1LAI; 72 h incubation) | anti-HIV potency (in words) (HIV-1LAI) | further results
O=c1oc2ccccc2c(O)c1C(c1ccccc1)c1c(O)c2ccccc2oc1=O [(1), 3,3′-benzylidenebis[4-hydroxycoumarin]] | 25 | 0,25 μM | – | – | – | – | – | –
CC(=O)CC(c1ccccc1)c1c(O)c2ccccc2oc1=O (centres unmarked) [(W), 4-hydroxy-3-(3-oxo-1-phenylbutyl)-2H-1-benzopyran-2-one, reference compound] | 250 | 25 µM | ∼ 1% | – | – | – | – | –
O.O.O=c1oc2ccccc2c([O-])c1C(c1ccccc1)c1c([O-])c2ccccc2oc1=O.[Ce+3].[OH-] [Ce(1)] | – | 12,5 μM | ∼ 1% | 25 | 10–50 times | 8,7% | limited anti-HIV potency | –
CC(C)(C)NC(=O)[C@@H]1CN(Cc2cccnc2)CCN1C[C@@H](O)C[C@@H](Cc1ccccc1)C(=O)N[C@H]1c2ccccc2C[C@H]1O [Indinavir] | – | – | – | – | – | – | – | RT activity of SNs OD405 ([1]; 0.05 μM): 1.454 OD405; RT activity of SNs OD405 ([1]; 0.5 μM): 1.400 OD405; RT activity of SNs OD405 ([1]; 5 μM): 1.154 OD405; RT activity of SNs OD405 ([1]; 50 μM): 0.903 OD405; Microtiter infection assay OD540 ([2]; 0.05 μM): 0.739 OD540; Microtiter infection assay OD540 ([2]; 0.5 μM): 0.633 OD540; Microtiter infection assay OD540 ([2]; 5 μM): 0.520 OD540; Microtiter infection assay OD540 ([2]; 50 μM): 0.375 OD540
O.O=c1oc2ccccc2c([O-])c1C(c1ccccc1)c1c([O-])c2ccccc2oc1=O.[La+3].[OH-] [La(1)] | – | 0,25 μM | – | 25 | – | – | – | –
O.O=c1oc2ccccc2c([O-])c1C(c1ccccc1)c1c([O-])c2ccccc2oc1=O.[Nd+3].[OH-] [Nd(1)] | – | 2.5 µM | ∼ 1% | 125 | 10–50 times | 10,4% | limited anti-HIV potency | lower cytotoxicity compared to the other lanthanides and the ligand (1) (MT-2 cells; ratio of CC50, MT-2 cells): at least 5 times; HIV inhibition (%) Microtiter infection assay (HIV-1LAI; at MNC, 72 h incubation, MT-2 cells, averaged after at least 3 experiments): 10.4%
